Data from patent US20040235717A1, “Suppression of androgen receptor transactivation through new pathways to ar and ar coactivators and repressors” (priority 2001, published 2004).
“Also recorded” adds a separate entry of the source.

Experiments:
[1] = test system: Akt; assay: Akt activity in LNCaP cells, Western blot with phospho-Akt (Ser473) antibody; type: cell-based; details: LNCaP cells stably transfected with dAkt
Description: 18. […] (A) Akt suppressed androgen/AR-induced p21 promoter activity. […] (B) Androgen/AR-induced PC-3(AR)6 apoptosis and p21 protein expression was blocked by Akt PC-3(AR)6 was transfected with pCDNA3, cAkt, or dAkt, as indicated, for 16 h. […] (C) AR-induced p21 protein expression was enhanced by dAkt in LNCaP cells. […] LNCaP stable transfection with dAkt was confirmed by western blot assay using phospho-Akt (Ser473) antibody. […] TPA was then added for another 24 h and cell apoptosis was determined by TUNEL assay. […] IGF-1 was added for another 30 min, followed by 10 nM TPA treatment for another 24 h. The apoptosis was determined by TUNEL assay. The data are means±s.d. from three independent experiments.
31. […] (D) The LNCaP cells were transfected with plasmids as indicated for 16 h, and the medium was changed to 0.1% CDS media for 2 days. The cell apoptosis was determined by TUNEL assay (E) The LNCaP cells were transfected with plasmids as indicated for 16 h, harvested, and the cell extracts were subjected to SDS-PAGE. The Akt activity was determined by Western blotting using phospho(S473)-Akt antibody. (F) The U87MG cells were transfected with plasmids as indicated for 16 h, and the medium was changed 0.1% CDS media for 2 days. The cell apoptosis was determined by TUNEL assay. Data for luciferase activity and apoptosis are means±s.d. from three independent experiments.

[2] = test system: AR protein stability; assay: Pulse-chase labeling of AR in COS-1 cells; type: cell-based; details: LY294002 20 μM
Description: 30. […] The cells were harvested for Western blot analysis. […] Western blot analysis was performed and AR and PTEN were detected by AR antibody or PTEN antibody. (C) PTEN-C1 cells were treated with 4 μg/ml Dox in 10% CDS media for 48 h. Total RNA was prepared and Northern blot analysis was performed using [^32P]-dCTP-labeled AR (aa, 1-389) as a probe. (D) COS-1 cells were transfected with AR along with pCDNA3 or PTEN in 10% CDS media for 16 h. […] The cell extracts were immunoprecipitated with AR antibody and subjected to SDS-PAGE followed by autoradiography. Data were from three identical results. (E) COS-1 cells were transfected with AR along with pCDNA3 or dAkt in 10% CDS media for 16 h, pulsed with [^35S]-methionine for 45 min, and then harvested at different chase times as indicated. LY294002 (20 μM) was added 2 h before pulsing with [^35S]-methionine.
317. Pulse-chase experiments were performed as described (Lo et al. (1999) Nat Cell Biol 1, 472-8) with some modifications. Briefly, COS-1 cells were transfected with pSG5-AR in combination with pCDNA3 or pCDNA3 PTEN in 10% CDS media for […]. Cells were grown under serum starvation conditions for 2 h in methionine/cysteine-deficient medium, and then the cells were pulsed for 45 min with 200 μCi/ml [^35S]-methionine/cysteine (NEN). […]

[3] = test system: AR transactivation; assay: AR transactivation, MMTV-CAT reporter in DU145 cells transfected with AR; type: cell-based, human
Text: 250. To dissect the divergent effects of IL-6 in prostate tumor growth, Qui, Y. et al., Nature 393, 83-85 (1998); Hobisch, A. et al., Cancer Res. 58, 4640-4645 (1998); Ritchie, C. K. et al., Endocrinology 138, 1145-1150 (1997), the potential influences of IL-6 on the transactivation of AR, the master regulator of the prostate tumor growth were studied. Chang, C. et al., Science 240, 324.326 (1988); Chang, C. et al., Crit. Rev. Eukaryotic Gene Expression 5, 97-125 (1995). Because IL-6 has two major signal cascades, mitogen-activated protein kinase (MAPK) and phosphatidylinositol 3-kinase (PI3K), Qui, Y. et al., Nature 393, 83-85 (1998); Qui, Y. et al., Proc. Natl. Acad. Sci. USA 95, 3644-3649 (1998), inhibitors were applied to specifically block one of these two IL-6 signal pathways. DU145 cells were transfected for 24 h with AR and MMTV-CAT reporter gene. After transfection, the cells were serum starved for 24 h. Next, 20 μM LY294002, P098059 or vehicle was added to serum-free medium 30 min prior to IL-6 treatment. […] The cells were then harvested and AR transactivation was measured by CAT activity. […] Vlahos, C. J. et al., J. Biol. Chem. 269, 5241-5148 (1994). […] Alessi, D. R. et al., J. Biol. Chem. 270, 27489-27494 (1995).
251. IL-6's effect on PI3K activity was tested. After serum starvation for 24 h, LNCaP, PC-3 or DU145 cells were treated with 50 μg/ml IL-6 for 30 minutes. The cells were then harvested. PI3K activity was measured by using phosphatidylinositol (PT) as a substrate. […] The transactivation was measured by CAT activity.
252. Focus then turned to the two major downstream effectors of PI3K: a serine/threonine kinase (Akt/PKB) and a ribosomal S6 kinase (p70S6k). Franke, T. F. et al., Cell 88,435-437 (1997). […] The transactivation activity was determined after 24 h transfection.
262. The DU145 and PC-3 cells were maintained in Dulbecco's Minimum Essential Medium (DMEM) containing penicillin (25 μg/m1), streptomycin (25 μg/ml), and 5% fetal calf serum (FCS). The LNCaP cells were maintained in RPMI-1640 with 10% FCS. Transfections were performed using the calcium phosphate precipitation method, as previously described. Yeh, S. et al., Proc. Natl. Acad. Sci. USA 93, 5517-5521(1996).
277. The DU145 and PC-3 cells were maintained in Dulbecco's Minimum Essential Medium (DMEM) containing penicillin (25 U/ml), streptomycin (25 μg/ml), and 5% fetal calf serum (FCS). The LNCaP cells were maintained in RPMI-1640-10% FCS. Transfections were performed using the calcium phosphate precipitation method in PC-3 and DU145, as previously described. Yeh, S., Lin, H. K., Kang, H. Y., Thin, T. H., Lin, M. F. & Chang, C. (1999) Proc Natl Acad Sci U S A 96, 5458-63. LNCaP cells were transfected using SuperFect™ according to standard procedures (Qiagen).

[4] = test system: AR transactivation; assay: AR transactivation, MMTV-luc / (ARE)4-luc luciferase reporter assay; type: cell-based; details: LNCaP; MMTV-luc and (ARE)4-luc; 10 nM DHT

Substance: dAkt: dominant-negative Akt, a kinase deficient mutant, K179A
- Reduction in Akt activity [1]: 50%
- AR degradation [2]: did not promote AR degradation
- Effect on DHT-induced AR transactivation (CAT activity) ([3]; presence of androgen): induce AR transactivation in a dose-dependent manner; also recorded: induce wtAR transactivation in a dose-dependent manner
- Effect on p110/p110*-repressed AR transactivation ([3]; rapamycin 20 nM 30 min prior to 1 nM DHT, dAkt co-transfected): reversed the p110-repressed AR transactivation; also recorded: reversed this p110*-repressed AR transactivation
- Effect on AR transactivation [4]: enhanced AR transactivation in both MMTV-Luc and (ARE)4-Luc
